# Values joined by “and” are separate entries in the source; they are usually repeats but may differ in a detail not shown here. Equal values may be shown once. Toxic doses and inconclusive results are not listed.
# System: BDF1 mice, B16 melanoma ip, median survival T/C
# Experiment: NCI In Vivo Anticancer Drug Screen. Data for tumor model B16 Melanoma (intraperitoneal) in B6D2F1 (BDF1) mice
# Settings: endpoint: median survival time, schedule: Q01DX009 (ip), higher = longer survival
# Procedure, shortened: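 In this screen, activity was judged from survival or tumor size in treated versus vehicle-treated tumor-bearing mice, reported as T/C.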
# [1] = dose: 1.56 mg/kg/injection, vehicle: saline
# [2] = dose: 3.12 mg/kg/injection, vehicle: saline
# [3] = dose: 12.5 mg/kg/injection, vehicle: saline
# [4] = dose: 25.0 mg/kg/injection, vehicle: saline
# [5] = dose: 50.0 mg/kg/injection, vehicle: saline
# [6] = dose: 100.0 mg/kg/injection, vehicle: saline
# [7] = dose: 0.78 mg/kg/injection, vehicle: Klucel (hydroxypropylcellulose) (HPC)
# [8] = dose: 1.56 mg/kg/injection, vehicle: Klucel (hydroxypropylcellulose) (HPC)
structure (smiles),measurement,setting,value
O=c1[nH]c(=O)n(C2OC(CO)C(O)C2O)cc1F (stereo unspecified),T/C,"dose: 0.78 mg/kg/injection, vehicle: saline",156 % of control
same,T/C,[1],165 % of control
same,T/C,[2],165 % of control
CCN(CC)CCOC(=O)C(c1ccccc1)C1CCCCC1 (stereo unspecified),T/C,"dose: 6.25 mg/kg/injection, vehicle: saline",99 % of control
same,T/C,[3],108 % of control
same,T/C,[4],108 % of control
same,T/C,[5],118 % of control
same,T/C,[6],110 % of control
O=S(=O)(O)O.[W],T/C,"dose: 0.75 mg/kg/injection, vehicle: saline",87 % of control and 100 % of control
same,T/C,"dose: 1.5 mg/kg/injection, vehicle: saline",91 % of control and 101 % of control
Cc1c(CNc2ccc(C(=O)NC(CC(=O)O)CC(=O)O)cc2)ccc2nc(N)nc(N)c12,T/C,"dose: 0.05 mg/kg/injection, vehicle: saline",111 % of control
same,T/C,"dose: 0.1 mg/kg/injection, vehicle: saline",111 % of control
same,T/C,"dose: 0.12 mg/kg/injection, vehicle: saline with Tween-80",102 % of control
same,T/C,"dose: 0.2 mg/kg/injection, vehicle: saline",116 % of control
same,T/C,"dose: 0.25 mg/kg/injection, vehicle: saline with Tween-80",91 % of control
same,T/C,"dose: 0.37 mg/kg/injection, vehicle: saline",100 % of control
CNCC(O)c1cccc(O)c1 (stereo unspecified),T/C,[1],111 % of control
same,T/C,[2],117 % of control
same,T/C,[3],108 % of control
same,T/C,[4],105 % of control
same,T/C,[5],95 % of control
CCOC(=O)C(C(=O)OCC)=C(C)C,T/C,[4],123 % of control
same,T/C,[5],113 % of control
same,T/C,[6],110 % of control
same,T/C,"dose: 200.0 mg/kg/injection, vehicle: saline",94 % of control
O=[N+]([O-])c1ccc(/C=N\Nc2ccc([N+](=O)[O-])cn2)cc1,T/C,[7],106 % of control
same,T/C,[8],97 % of control
same,T/C,"dose: 3.12 mg/kg/injection, vehicle: Klucel (hydroxypropylcellulose) (HPC)",86 % of control
same,T/C,"dose: 6.25 mg/kg/injection, vehicle: Klucel (hydroxypropylcellulose) (HPC)",97 % of control
same,T/C,"dose: 12.5 mg/kg/injection, vehicle: Klucel (hydroxypropylcellulose) (HPC)",86 % of control
COC(=O)[C@H]1[C@H]2C[C@@H]3c4[nH]c5cc(OC)ccc5c4CCN3C[C@H]2C[C@@H](OC(=O)/C=C/c2cc(OC)c(OC)c(OC)c2)[C@@H]1OC,T/C,"dose: 0.09 mg/kg/injection, vehicle: Klucel (hydroxypropylcellulose) (HPC)",90 % of control
same,T/C,"dose: 0.19 mg/kg/injection, vehicle: Klucel (hydroxypropylcellulose) (HPC)",94 % of control
same,T/C,"dose: 0.39 mg/kg/injection, vehicle: Klucel (hydroxypropylcellulose) (HPC)",94 % of control and 100 % of control
same,T/C,[7],86 % of control and 90 % of control
same,T/C,[8],87 % of control and 93 % of control
O=C(O)C(=O)O.O=C([O-])C(=O)O.O=C([O-])C(=O)O.O=C([O-])C(=O)[O-].[K+].[U],T/C,"dose: 0.5 mg/kg/injection, vehicle: Klucel (hydroxypropylcellulose) (HPC)",98 % of control
same,T/C,"dose: 1.0 mg/kg/injection, vehicle: Klucel (hydroxypropylcellulose) (HPC)",97 % of control
same,T/C,"dose: 1.0 mg/kg/injection, vehicle: saline",100 % of control
same,T/C,"dose: 2.0 mg/kg/injection, vehicle: saline",98 % of control
CCN(CC)CCCCNc1ccc(NCCCCN(CC)CC)c2c1C(=O)c1ccccc1C2=O,T/C,"dose: 25.0 mg/kg/injection, vehicle: saline with Tween-80",105 % of control
same,T/C,"dose: 50.0 mg/kg/injection, vehicle: saline with Tween-80",99 % of control

# From PubChem BioAssay AID192 (DTP/NCI, 2004)
